Measurements as given in publication PMC5556071, “ATR inhibition facilitates targeting of leukemia dependence on convergent nucleotide biosynthetic pathways” (Nature Communications, 2017).
“And” between values parts separate entries of the source, which are not always exact repeats. Identical values can stand only once.

Test system: CEM cells
Assay: Non-targeted LC-MS metabolite profiling: percent [13C6]glucose labeling and relative metabolite levels
Type: cell-based, human
Details: CEM cells, 12 h following release from G1 arrest, replicates #1-#6
From the text: To further investigate the functions of dCK and ATR at the G1/S transition in CEM cells, a non-targeted liquid chromatography mass spectrometry (LC-MS) assay was used to determine the utilization of labeled [^13C6]glucose and [^13C9,^15N3]deoxycytidine, the main substrates for de novo and salvage nucleotide biosynthesis, respectively. Of the 166 metabolites identified in CEM cells treated with VE-822 and/or dCKi, 105 metabolites found in all four treatment groups contained glucose-derived ^13C atoms. […] These metabolites included intermediates such as rUTP, rCTP and rCDP in the de novo dCTP biosynthesis (Fig. 1d). […] However, several deoxyribonucleotides, including dCTP, were below the limit of detection of the non-targeted LC-MS approach, raising the concern that the sensitivity of this assay is not sufficient to measure the contribution of the salvage pathway or the ratio of de novo and salvage biosynthesis to these pools. To address this problem, a newly developed targeted MS assay was developed (Fig. 1e and Supplementary Fig. 3). In this assay, samples containing either extracted dNTPs or hydrolyzed DNA from labeled cells are separated by LC for detection by a triple quadrupole mass spectrometer using multiple reaction monitoring (LC-MS/MS-MRM). The first (Q1) and third (Q3) quadrupoles function as mass filters, while the second (Q2) quadrupole serves as a collision chamber (Fig. 1e). For instance, to profile the biosynthetic composition of deoxycytidine (dC) derived from hydrolyzed DNA or dCTP, an intact, protonated dC ion is selected in Q1, followed by fragmentation of the glycosidic bond, which releases protonated cytosine in Q2, that is filtered in Q3 and detected to generate an ion chromatogram. The peak areas for the ion chromatograms of salvage [^13C9,^15N3]dC (red trace), de novo [^13C5]dC (black trace, from [^13C6]glucose) and unlabeled dC (gray trace) (Fig. 1e) are used to determine the relative contributions of the de novo and salvage routes both to dCTP pools and to DNA-incorporated dCTP.
Cells were transferred into RPMI-1640 without glucose and supplemented with 10% dialyzed FBS (Gibco) containing the following labeled substrates: precursors for de novo [U-^13C6]glucose (Sigma-Aldrich, 389374) at 11 mM; precursors for purine salvage [U-^13C10,^15N5]dA (Cambridge Isotopes, CIL 3896), [^15N5]dA (Cambridge Isotopes, NLM-3895) and [^15N5]dG (Cambridge Isotopes, NLM-3899) at 5 µM or as indicated; and precursors for pyrimidine salvage: [U-^13C9,^15N3]dC (Silantes, 124603602) and [U-^13C10,^15N2]dT (Cambridge Isotopes, CNLM-3902) at 5 µM and [^15N2]orotate (Cambridge Isotopes, NLM-1048) at indicated concentrations. The cells were incubated for 12 h or as indicated before sample collection and processing. […]
Non-targeted LC-MS metabolic assays. 1 x 10^6 cells were washed with ice-cold 150 mM ammonium acetate twice before adding 1 mL of ice-cold 80% methanol with 10 nM norvaline as an internal standard. After vigorous vortexing, samples were centrifuged at maximum speed, the aqueous layer was transferred to a glass vial and the metabolites were dried under vacuum. Metabolites were resuspended in 50 μL 70% acetonitrile (ACN) and 5 μL of this solution used for the mass spectrometer-based analysis. The analysis was performed on a Q Exactive (Thermo Scientific) in polarity-switching mode with positive voltage 4.0 kV and negative voltage 4.0 kV. The mass spectrometer was coupled to an UltiMate 3000RSLC (Thermo Scientific) UHPLC system. Mobile phase A was 5 mM ammonium acetate (NH4AcO), pH 9.9, B was acetonitrile and the separation achieved on a Luna […] NH2 100 A column (150 × 2.0 mm, Phenomenex). The flow was 200 μL/min, and the gradient ran from 15% A to 95% A in 18 min, followed by an isocratic step for 9 min and re-equilibration for 7 min. Metabolites were detected and quantified as area under the curve based on retention time and accurate mass (≤ 3 p.p.m.) using the TraceFinder 3.1 (Thermo Scientific). Relative amounts of […]

[1] = metabolite Asn (C00152), listed as D
[2] = metabolite Asp (C00049), listed as D
[3] = metabolite Carnitine (C00318), listed as D
[4] = metabolite G3P (KEGG C00118), listed as D
[5] = metabolite G6P-F6P (KEGG C00668), listed as D
[6] = metabolite GABA (KEGG C00334), listed as D
[7] = metabolite GDP (KEGG C00035), listed as D
[8] = metabolite GMP (KEGG C00144), listed as D
[9] = metabolite GSH (KEGG C00051), listed as D
[10] = metabolite GSSG (KEGG C00127), listed as D
[11] = metabolite GTP (KEGG C00044), listed as D
[12] = metabolite Glc (KEGG C00031), listed as D
[13] = metabolite GlcA (KEGG C00257), listed as D
[14] = metabolite GlcN-6P (KEGG C00352), listed as D
[15] = metabolite GlcNAc-6P (KEGG C00357), listed as D
[16] = metabolite Gln (KEGG C00064), listed as D
[17] = metabolite Glu (KEGG C00025), listed as D
[18] = metabolite GlucA (KEGG C00191), listed as D
[19] = metabolite Gly (KEGG C00037), listed as D
[20] = metabolite Glycerol (KEGG C00116), listed as D
[21] = metabolite Glycerol-2-P (KEGG C02979), listed as D
[22] = metabolite Glycerol-3-P (KEGG C00093), listed as D
[23] = metabolite His (KEGG C00135), listed as D
[24] = metabolite Homocysteine (KEGG C00155), listed as D
[25] = metabolite Hypoxanthine (KEGG C00262), listed as D
[26] = metabolite IMP (KEGG C00130), listed as D
[27] = metabolite Inosine (KEGG C00294), listed as D
[28] = metabolite a-KG (C00026), listed as D

COc1ccc(-c2nc([C@@H](C)Sc3nc(N)cc(N)n3)c(C)s2)cc1OCCNS(C)(=O)=O [dCKi]
Relative level, Arg-Succ (metabolite Arg-Succ (C03406), listed as D): 1.1 and 1.2 and 1.4 and 0.428 and 0.458 and 0.6
Glucose labeling, Asn [1]: 0.000993% and 2.77e-6% and 0.00524% and 0.00322% and 0.000183% and 2.2e-6%
Relative level, Asn [1]: 1.1 and 1.3 (2×) and 0.8 and 0.7 and 0.85
Glucose labeling, Asp [2]: 24.08% and 25.99% and 25.39% and 25.08% and 25.80% and 25.92%
Relative level, Asp [2]: 0.9 (3×) and 1.1 and 0.5 and 0.6
Glucose labeling, C (metabolite C (D07769), listed as D): 0.44% (4×) and 0.15% and 0.31%
Relative level, C (metabolite C, listed as D): 1.0 and 1.2 and 1.3 (2×) and 1.4 and 1.1
Glucose labeling, Carnitine [3]: 0.0041% and 0.00586% and 0.00566% and 0.00463% and 0.00467% and 0.00476%
Relative level, Carnitine [3]: 1.0 and 1.1 (2×) and 0.9 (2×) and 0.843
Glucose labeling of G3P [4]: 100.00% (3×) and 0.0369% (3×)
Relative level of G3P [4]: 0.316 and 1.2 and 0.237 and 0.232
Glucose labeling of G6P-F6P [5]: 57.18% and 69.30% and 72.35% and 21.95% and 56.24% and 64.94%
Relative level of G6P-F6P [5]: 0.6 and 0.7 and 1.0 and 0.163 and 0.339 and 0.4
Glucose labeling of GABA [6]: 0.0266% and 0.0568% and 0.0445% and 0.0322% and 0.0737% (2×)
Relative level of GABA [6]: 1.2 and 1.4 and 1.5 and 0.6 and 0.5 and 0.466
Glucose labeling of GDP [7]: 100.00% (2×) and 89.71% and 79.16% and 66.81% and 77.84%
Relative level of GDP [7]: 0.278 and 0.74 and 2.1 and 0.0943 and 0.533
Glucose labeling of GMP [8]: 82.17% and 84.38% and 86.57% and 100.00% and 55.56% and 83.28%
Relative level of GMP [8]: 1.0 (2×) and 2.5 and 0.177 and 0.7
Glucose labeling of GSH [9]: 24.91% and 25.95% and 26.01% and 22.52% and 20.58% and 22.91%
Relative level of GSH [9]: 0.8 and 1.1 and 1.4 and 0.2 and 0.245 and 0.4
Glucose labeling of GSSG [10]: 44.73% and 47.85% and 45.35% and 40.72% and 38.47% and 41.79%
Relative level of GSSG [10]: 1.0 (2×) and 1.3 and 1.5 and 0.364 and 0.7
Glucose labeling of GTP [11]: 88.53% and 93.02% and 84.10% and 100.00% and 95.85% and 82.17%
Relative level of GTP [11]: 0.137 and 0.6 and 1.3 and 0.0117 and 0.173 and 0.5
Glucose labeling of Glc [12]: 48.02% and 85.76% and 96.57% and 84.10% and 87.56% and 88.93%
Relative level of Glc [12]: 0.632 and 1.4 and 6.6 and 1.5 and 2.2 and 2.0
Glucose labeling of GlcA [13]: 38.48% and 42.08% and 42.11% and 29.34% and 32.69% and 34.11%
Relative level of GlcA [13]: 1.0 (2×) and 1.4 and 0.4 and 0.5 and 0.7
Glucose labeling of GlcN (metabolite GlcN (KEGG C00329)): 0.18%
Relative level of GlcN (metabolite GlcN (KEGG C00329), listed as D): 1.4 and 0.948 and 0.9 (2×) and 1.0 and 0.8
Glucose labeling of GlcN-6P [14]: 6.04% and 8.63% and 7.74% and 8.56% and 9.86% and 9.69%
Relative level of GlcN-6P [14]: 0.8 and 0.847 and 1.1 and 0.743 and 0.7 and 1.0
Glucose labeling of GlcNAc-6P [15]: 12.90% and 10.87% and 25.06% and 34.14% and 41.68% and 27.99%
Relative level of GlcNAc-6P [15]: 0.636 and 0.8 and 1.2 and 0.212 and 0.6 (2×)
Glucose labeling of Gln [16]: 0.24% and 0.28% (4×) and 0.29%
Relative level of Gln [16]: 1.0 (2×) and 1.2 and 1.3 and 0.9 (2×)
Glucose labeling of Glu [17]: 30.50% and 31.50% and 31.06% and 32.25% and 32.69% and 32.43%
Relative level of Glu [17]: 1.0 and 1.1 and 1.2 and 0.6 (2×) and 0.751
Glucose labeling of GlucA [18]: 0.47% and 1.38% and 1.95% and 0.76% and 1.61% and 0.18%
Relative level of GlucA [18]: 1.5 and 0.9 and 1.3 and 0.635 and 0.563 and 0.7
Glucose labeling of Gly [19]: 5.78% and 6.19% and 5.38% and 3.11% and 3.32% and 3.83%
Relative level of Gly [19]: 1.1 and 1.3 and 1.2 (2×) and 0.9 and 0.854
Glucose labeling of Glycerol [20]: 0.0257% and 0.0369% (2×) and 0.03% and 0.00165% and 0.0279%
Relative level of Glycerol [20]: 0.8 (2×) and 0.7 and 1.5 and 2.6 and 2.4
Glucose labeling of Glycerol-2-P [21]: 12.49% and 5.31% and 20.27% and 20.32% and 0.0369% and 11.49%
Relative level of Glycerol-2-P [21]: 0.6 and 0.5 and 1.9 and 0.0423 and 0.16 and 0.346
Glucose labeling of Glycerol-3-P [22]: 15.24% and 16.29% and 15.98% and 18.03% and 18.16% and 17.98%
Relative level of Glycerol-3-P [22]: 1.0 and 0.9 (2×) and 0.7 (2×) and 0.656
Glucose labeling of HS2O3 (metabolite HS2O3 (KEGG C00320)): 100.00%
Relative level of HS2O3 (metabolite HS2O3 (KEGG C00320), listed as D): 0.9 (2×) and 1.0 and 0.8 and 1.1 (2×)
Glucose labeling of His [23]: 0.00% (5×) and 1.11e-14%
Relative level of His [23]: 1.2 and 1.3 and 1.5 and 0.76 and 0.6 and 0.7
Glucose labeling of Homocysteine [24]: 0.022% and 0.0737% and 0.000309% and 0.01% and 0.000455% and 0.23%
Relative level of Homocysteine [24]: 2.7 and 0.5 and 1.5 (2×) and 3.4 and 0.855
Glucose labeling of Hypoxanthine [25]: 0.00941% and 0.12% (4×) and 0.06%
Relative level of Hypoxanthine [25]: 2.0 and 0.2 and 1.0 and 1.3 (2×) and 2.9
Glucose labeling of IMP [26]: 93.29% and 98.06% and 95.55% and 100.00% and 94.31% and 97.32%
Relative level of IMP [26]: 0.7 and 0.8 and 1.6 and 0.111 and 0.323 and 0.6
Glucose labeling of Inosine [27]: 0.55% (4×) and 100.00% and 49.07%
Relative level of Inosine [27]: 0.5 and 0.547 and 0.3 and 0.568 and 0.6
Glucose labeling of Inositol (metabolite Inositol (KEGG C00137)): 0.00%
Relative level of Inositol (metabolite Inositol (KEGG C00137), listed as D): 1.0 (2×) and 1.6 (2×) and 1.1 (2×)
Glucose labeling, a-KG [28]: 4.27% and 11.78% and 16.08% and 0.12% (2×) and 4.73%
Relative level, a-KG [28]: 0.7 and 1.1 and 2.3 and 0.0795 and 0.14 and 0.259
